From PubChem BioAssay AID2060504 (Molecular Pharmacology Branch, DTP, NCI, 2025)

Test system: 636577-100-R-J1-PDC complex spheroid viability
Assay: Anticancer human tumor 636577-100-R-J1-PDC patient-derived endometrial adenocarcinoma cell line growth inhibition [GQUAD]
Details: for IC50: curve of first compound; for viability, T/C: stronger effect = lower value; active means viability on the fitted dose curve at most 10% of control; inactive means the rest
How it was run: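 Multi-cell-type spheroids of tumor cells with HUVEC and mesenchymal stem cells, treated with drug combinations. Concentrations descend in half-log steps from near clinical Cmax, or from 10 microM where Cmax is unknown; viability read-out.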

[1] = second compound 0.0316 µM, first compound 0.0316 µM
[2] = second compound 0.0316 µM, first compound 0.1 µM
[3] = second compound 0.0316 µM, first compound 0.316 µM
[4] = second compound 0.0316 µM, first compound 1 µM
[5] = second compound 0.0316 µM, first compound 3.16 µM
[6] = second compound 0.0316 µM, first compound 10 µM
[7] = second compound 0.1 µM, first compound 0.0316 µM
[8] = second compound 0.1 µM, first compound 0.1 µM
[9] = second compound 0.1 µM, first compound 0.316 µM
[10] = second compound 0.1 µM, first compound 1 µM
[11] = second compound 0.1 µM, first compound 3.16 µM
[12] = second compound 0.1 µM, first compound 10 µM
[13] = second compound 0.316 µM, first compound 0.0316 µM
[14] = second compound 0.316 µM, first compound 0.1 µM
[15] = second compound 0.316 µM, first compound 0.316 µM
[16] = second compound 0.316 µM, first compound 1 µM
[17] = second compound 0.316 µM, first compound 3.16 µM
[18] = second compound 0.316 µM, first compound 10 µM
[19] = second compound 1 µM, first compound 0.0316 µM
[20] = second compound 1 µM, first compound 0.1 µM
[21] = second compound 1 µM, first compound 0.316 µM
[22] = second compound 1 µM, first compound 1 µM
[23] = second compound 1 µM, first compound 3.16 µM
[24] = second compound 1 µM, first compound 10 µM
[25] = second compound 3.16 µM, first compound 0.0316 µM
[26] = second compound 3.16 µM, first compound 0.1 µM
[27] = second compound 3.16 µM, first compound 0.316 µM
[28] = second compound 3.16 µM, first compound 1 µM
[29] = second compound 3.16 µM, first compound 3.16 µM
[30] = second compound 3.16 µM, first compound 10 µM
[31] = second compound 10 µM, first compound 0.0316 µM
[32] = second compound 10 µM, first compound 0.1 µM
[33] = second compound 10 µM, first compound 0.316 µM
[34] = second compound 10 µM, first compound 1 µM
[35] = second compound 10 µM, first compound 3.16 µM
[36] = second compound 10 µM, first compound 10 µM
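Further: viability read after seven days of drug exposure.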
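Wherever viability, T/C is given: luminescence signal used as a proxy for viable cells; 100% = DMSO vehicle control wells.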

COc1cc(C2c3cc4c(cc3C(OC3OC5COC(C)OC5C(O)C3O)C3COC(=O)C23)OCO4)cc(OC)c1O (stereo unspecified) + Cc1[nH]c2ccc(F)cc2c1-c1nc2c3cccnc3c3ncccc3c2[nH]1
58.8 nM: IC50 (second compound 1 µM)
36.8 nM: IC50 (second compound 10 µM)
inactive: viability, T/C [1] 80.6% | viability, T/C [2] 45.6% | viability, T/C [3] 24.1% | viability, T/C [4] 16.1% | viability, T/C [5] 16% | viability, T/C [6] 14% | viability, T/C [7] 68.4% | viability, T/C [8] 41.2% | viability, T/C [9] 23.4% | viability, T/C [10] 17.1% | viability, T/C [11] 17.5% | viability, T/C [12] 13.9% | viability, T/C [13] 71.5% | viability, T/C [14] 46.7% | viability, T/C [15] 21.1% | viability, T/C [16] 16.8% | viability, T/C [17] 16.8% | viability, T/C [18] 14.2% | viability, T/C [19] 65.3% | viability, T/C [20] 37.2% | viability, T/C [21] 21.4% | viability, T/C [22] 19.9% | viability, T/C [23] 18% | viability, T/C [24] 13.8% | viability, T/C [25] 30% | viability, T/C [26] 23.9% | viability, T/C [27] 21% | viability, T/C [28] 18.5% | viability, T/C [29] 17.8% | viability, T/C [30] 14.1% | viability, T/C [31] 52.5% | viability, T/C [32] 34.6% | viability, T/C [33] 21.9% | viability, T/C [34] 19.1% | viability, T/C [35] 18.3% | viability, T/C [36] 15.1%
68.8 nM: IC50 (second compound 0.1 µM)
85.8 nM: IC50 (second compound 0.316 µM)
86.7 nM: IC50 (second compound 0.0316 µM)
< 31.6 nM: IC50 (second compound 3.16 µM)

CC(=O)O[C@H]1C(=O)[C@@]2(C)[C@H]([C@H](OC(=O)c3ccccc3)[C@]3(O)C[C@H](OC(=O)[C@H](O)[C@@H](NC(=O)c4ccccc4)c4ccccc4)C(C)=C1C3(C)C)[C@]1(OC(C)=O)CO[C@@H]1C[C@@H]2O + CN(C)c1ccc(Nc2c3ccc(NC(=O)CCN4CCCC4)cc3nc3cc(NC(=O)CCN4CCCC4)ccc23)cc1
inactive: viability, T/C [1] 20.1% | viability, T/C [2] 12.8% | viability, T/C [3] 13.3% | viability, T/C [4] 11.8% | viability, T/C [5] 11.5% | viability, T/C [6] 10.8% | viability, T/C [7] 18.8% | viability, T/C [8] 13.5% | viability, T/C [9] 11.4% | viability, T/C [13] 15.9% | viability, T/C [14] 12.3% | viability, T/C [15] 10.4% | viability, T/C [16] 12.6% | viability, T/C [17] 9.5% | viability, T/C [18] 10.1% | viability, T/C [19] 15.9% | viability, T/C [20] 12.8% | viability, T/C [21] 12.5% | viability, T/C [22] 11.6% | viability, T/C [23] 10% | viability, T/C [24] 10.4% | viability, T/C [25] 16.2% | viability, T/C [26] 12.7% | viability, T/C [27] 13.4% | viability, T/C [28] 11.6% | viability, T/C [29] 11.8% | viability, T/C [30] 11.2%
< 31.6 nM: IC50 (second compound 0.0316 µM) | IC50 (second compound 0.1 µM) | IC50 (second compound 0.316 µM) | IC50 (second compound 1 µM) | IC50 (second compound 3.16 µM) | IC50 (second compound 10 µM)
active: viability, T/C [10] 8.93% | viability, T/C [11] 9.82% | viability, T/C [12] 8.97% | viability, T/C [31] 4.59% | viability, T/C [32] 3.8% | viability, T/C [33] 2.57% | viability, T/C [34] 3.21% | viability, T/C [35] 3.16% | viability, T/C [36] 2.15%

CCc1c2c(nc3ccc(O)cc13)-c1cc3c(c(=O)n1C2)COC(=O)[C@]3(O)CC + CN(C)c1ccc(Nc2c3ccc(NC(=O)CCN4CCCC4)cc3nc3cc(NC(=O)CCN4CCCC4)ccc23)cc1
active: viability, T/C (second compound 10 µM, first compound 0.000999 µM) 4.84% | viability, T/C (second compound 10 µM, first compound 0.00316 µM) 4.42% | viability, T/C (second compound 10 µM, first compound 0.00999 µM) 4.45% | viability, T/C [31] 4.23% | viability, T/C (second compound 10 µM, first compound 0.0999 µM) 4.1% | viability, T/C [33] 2.29%
< 0.999 nM: IC50 (second compound 0.0316 µM) | IC50 (second compound 0.1 µM) | IC50 (second compound 0.316 µM) | IC50 (second compound 1 µM) | IC50 (second compound 3.16 µM) | IC50 (second compound 10 µM)
inactive: viability, T/C (second compound 0.0316 µM, first compound 0.000999 µM) 46.8% | viability, T/C (second compound 0.0316 µM, first compound 0.00316 µM) 23.4% | viability, T/C (second compound 0.0316 µM, first compound 0.00999 µM) 26% | viability, T/C [1] 16.6% | viability, T/C (second compound 0.0316 µM, first compound 0.0999 µM) 17.7% | viability, T/C [3] 12.4% | viability, T/C (second compound 0.1 µM, first compound 0.000999 µM) 43.7% | viability, T/C (second compound 0.1 µM, first compound 0.00316 µM) 21.6% | viability, T/C (second compound 0.1 µM, first compound 0.00999 µM) 22.2% | viability, T/C [7] 18.1% | viability, T/C (second compound 0.1 µM, first compound 0.0999 µM) 17% | viability, T/C [9] 12.9% | viability, T/C (second compound 0.316 µM, first compound 0.000999 µM) 41.9% | viability, T/C (second compound 0.316 µM, first compound 0.00316 µM) 23.1% | viability, T/C (second compound 0.316 µM, first compound 0.00999 µM) 20.3% | viability, T/C [13] 21.1% | viability, T/C (second compound 0.316 µM, first compound 0.0999 µM) 19.2% | viability, T/C [15] 13.2% | viability, T/C (second compound 1 µM, first compound 0.000999 µM) 39.4% | viability, T/C (second compound 1 µM, first compound 0.00316 µM) 21.4% | viability, T/C (second compound 1 µM, first compound 0.00999 µM) 24.2% | viability, T/C [19] 22.6% | viability, T/C (second compound 1 µM, first compound 0.0999 µM) 19.4% | viability, T/C [21] 13.4% | viability, T/C (second compound 3.16 µM, first compound 0.000999 µM) 29.8% | viability, T/C (second compound 3.16 µM, first compound 0.00316 µM) 22% | viability, T/C (second compound 3.16 µM, first compound 0.00999 µM) 19.5% | viability, T/C [25] 18.4% | viability, T/C (second compound 3.16 µM, first compound 0.0999 µM) 16.8% | viability, T/C [27] 9.28%
